We go through 11 compounds from patent US8143253B2, “Organic compounds” (Novartis AG, priority 2007, dated 2012).

pIC50: −log10 of the molar value.

For the first series, the target named is T1, human ALK5 (ALK5 T204D kinase domain) (Homo sapiens, UniProt P36897, T204D).
T1 construct: The kinase domain of human ALK5 (amino acids 200-503) is fused to an N-terminal histidine tag; made in house; host or cells: insect cells (baculovirus)
T1 sequence (P36897 200-503 T204D): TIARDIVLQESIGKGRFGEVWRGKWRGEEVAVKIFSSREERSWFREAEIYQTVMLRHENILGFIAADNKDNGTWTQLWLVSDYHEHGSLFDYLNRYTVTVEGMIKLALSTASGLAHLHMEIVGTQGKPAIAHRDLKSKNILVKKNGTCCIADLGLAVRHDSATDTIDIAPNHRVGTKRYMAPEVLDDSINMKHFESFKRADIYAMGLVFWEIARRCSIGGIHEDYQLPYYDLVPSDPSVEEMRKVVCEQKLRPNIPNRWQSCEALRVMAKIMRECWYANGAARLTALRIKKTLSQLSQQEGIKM
The series can be described thus: ALK5 kinase activity, radiolabelled phosphate [33P] incorporation into casein. The series is classed as biochemical. The settings on record: casein substrate, 1 μM unlabelled ATP. Here is the method:
The kinase activity of ALK5 is assessed by measuring radiolabelled phosphate [33P] incorporation in to the generic substrate, casein. The kinase domain of human ALK5 (amino acids 200-503) is fused to an N-terminal histidine tag. The kinase activity of ALK5 is rendered constitutive via point mutation at amino acid 204 (threonine to aspartate modification, ALK5 T204D) and the kinase construct is engineered to be expressed from a baculovirus expression construct in insect cells. The purified, recombinantly-expressed histidine-tagged ALK5 T204D protein is dissolved at 5.4 mg/ml in 50 mM Tris-HCl pH 8.0, 150 mM NaCl, 5 mM DTT. ALK5 T204D is dissolved to 2.5 μg/ml in assay buffer (Assay buffer: 20 mM Tris-HCl pH 7.4, 10 mM MgCl2, 2 mM MnCl2) on the day of use.
Test compounds and reference compounds are dissolved in assay buffer without DTT containing 5% (v/v) DMSO. Stock solutions of test and reference compounds are diluted in assay buffer with DTT (1.25 mM) containing 4.5% (v/v) DMSO. 10 μl of test or reference compound are added to the corresponding wells of 96 well U-bottomed plate. Total enzyme activity is determined by measuring ALK5 T204D activity in the absence of ALK5 kinase inhibitor reference compounds. Non-specific binding (NSB) is determined by measuring the activity of ALK5 T204D in the presence of ALK5 kinase inhibitor reference compounds. 10 μl of dephosphorylated casein stock solution (dephosphorylated casein is dissolved in ddH2O at 20 mg/ml) is added per well (200 μg/well final assay concentration). 20 μl of ALK5 T204D (2.5 μg/ml solution) is added per well (50 ng/well final assay concentration). The plates are left to incubate at room temperature for 10 minutes.
10 μl of ATP mix is added to the well to initiate the reaction (0.66 nM [^33P]ATP/1 μM unlabelled ATP/well final assay concentration). The ATP mix is prepared as follows, unlabelled ATP (3 mM) is dissolved in ddH2O and pH adjusted to 7.4. The stock concentration of [^33P]ATP is 10 μCi/μl. The corresponding volume of [^33P]ATP is added to unlabelled ATP solution such that the final assay concentration per well is 0.1 μCi. Following addition of the ATP mix, the plates are incubated at room temperature for 50 minutes. The kinase reaction is terminated by the addition of 50 μL Stop Buffer (20 mM Tris-HCl pH 7.4, 10 mM EDTA).
75 μl/well from the reaction plate is transferred to a Multiscreen-IP plate (MultiScreen-IP plates are prepared by added 50 μL of 70% (v/v) ethanol per well and incubated for 5 minutes at room temperature. The ethanol is removed by aspiration via a MultiScreen HTS Vacuum Manifold unit (Millipore, Cat no: MSVMHT500). The plates are washed twice by adding 200 μl/well ddH2O). The MultiScreen-IP plate is incubated at room temperature for 30 minutes to allowing binding of casein to the plate. The MultiScreen-IP plates are washed three times by adding 200 μl/well 100 mM phosphoric acid solution and the gasket is carefully removed from the back of the MultiScreen-IP plate and the plate dried in the oven for 30 minutes. The MultiScreen-IP plate is backsealed, 50 μL of Microscint™ 20 is added, then the plates are topsealed and radiolabelled casein detected and quantified on a TopCount™ plate-reader using the ^33P scintillation protocol.
For the compound `c1ccc(-c2cc(-c3cnc4cc(-c5ccncc5)cnn34)ccn2)cc1` [Example 10, 3-(2-Phenyl-pyridin-4-yl)-7-pyridin-4-yl-imidazo[1,2-b]pyridazine], the pIC50 is 7.55.
The compound `CNC(=O)c1cccc(-c2cnn3c(-c4ccnc(-c5ccccc5)c4)cnc3c2)c1` [Example 1, N-Methyl-3-[3-(2-phenyl-pyridin-4-yl)-imidazo[1,2-b]pyridazin-7-yl]-benzamide] gave a pIC50 of 7.08. This pIC50 is 0.47 log units lower than that of the compound before.
The compound `COc1cc(-c2cnc3cc(-c4cccnc4)cnn23)ccc1O` [Example 20, 2-Methoxy-4-(7-pyridin-3-yl-imidazo[1,2-b]pyridazin-3-yl)-phenol] gave a pIC50 of 6.69. Against the preceding compound, the pIC50 is 0.39 log units lower.
Compound `CCOC(=O)c1ccc(-c2cnn3c(-c4cccc(-n5cccn5)c4)cnc3c2)cc1` [Example 34, 4-[3-(3-Pyrazol-1-yl-phenyl)-imidazo[1,2-b]pyridazin-7-yl]-benzoic acid ethyl ester] showed a pIC50 of 6.85.
On to `CS(=O)(=O)Nc1cccc(-c2cnn3c(-c4ccnc(-c5ccoc5)c4)cnc3c2)c1` [Example 14, N-{3-[3-(2-Furan-3-yl-pyridin-4-yl)-imidazo[1,2-b]pyridazin-7-yl]-phenyl}-methanesulfonamide], for which the pIC50 is 7.38.
`c1cncc(-c2cnn3c(-c4cccc(-n5cccn5)c4)cnc3c2)c1` [Example 18, 3-(3-Pyrazol-1-yl-phenyl)-7-pyridin-3-yl-imidazo[1,2-b]pyridazine] had a pIC50 of 7.33.
In turn, `Oc1cccc(-c2cnn3c(-c4cccc(-n5cccn5)c4)cnc3c2)c1` [Example 8, 3-[3-(3-Pyrazol-1-yl-phenyl)-imidazo[1,2-b]pyridazin-7-yl]-phenol] gave a pIC50 of 7.62.
The compound `CCCCNC(=O)c1cccc(-c2cnn3c(-c4ccnc(-c5ccccc5)c4)cnc3c2)c1` [Example 59, N-Butyl-3-[3-(2-Phenyl-pyridin-4-yl)-imidazo[1,2-b]pyridazin-7-yl]-benzamide] had a pIC50 of 6.63.
In the case of `CNC(=O)c1cccc(-c2cnn3c(-c4ccnc(-c5ccc(F)cc5)c4)cnc3c2)c1` [Example 6, 3-{3-[2-(4-Fluoro-phenyl)-pyridin-4-yl]-imidazo[1,2-b]pyridazin-7-yl}-N-methyl-benzamide], the pIC50 is 6.86.
On to `NC(=O)c1cccc(-c2cnc3cc(-c4cccc(F)c4)cnn23)c1` [Example 24, 3-[7-(3-Fluoro-phenyl)-imidazo[1,2-b]pyridazin-3-yl]-benzamide], for which the pIC50 was 7.08.

The next series concerns dimethylnitrosamine induced liver fibrosis.
Assay: not given
The settings on record: rat, during the 3 weeks treatment; cited from earlier work.
Take `c1ccc(-c2cc(-c3cn[nH]c3-c3ccccn3)ccn2)cc1` [GW6604]: the side effects result is “no obvious side effects”.

Staying with this series, now noted: rat, given therapeutically; cited from earlier work.
Turning to `c1ccc(-c2cc(-c3cn[nH]c3-c3ccccn3)ccn2)cc1` [GW6604], the “inhibited extracellular matrix deposition” value is recorded as 60% and the prevented death rate is reported as 40%.

One may read the pIC50 as the negative decadic logarithm of the IC50, by convention in mol/L. Low values mean a high IC50, high ones a low IC50.
